According to patent US12599672B2, “KRAS proteolysis targeting chimeras” (PAQ Therapeutics Inc., priority 2023, dated 2026):

Tests used:
[1] = molecular target: T1, KRAS G12D (Homo sapiens, UniProt P01116, G12D); experiment: KRAS G12D HiBit assay; type: cell-based; conditions: AsPc-1-KRAS (G12D)-HiBit-KI cell, compound treatment for 24 hours; for DC50: absolute DC50
T1 construct: AsPc-1-KRAS (G12D)-HiBit-KI cell (Pharmaron); host or cells: AsPc-1-KRAS (G12D)-HiBit-KI cells (HiBiT knock-in at the endogenous KRAS locus)
Experimental: Day 1. […] Allowed cells to reach approximately 80% confluence before splitting. Rinsed cultivated cells in T-75 flasks with 5 mL PBS (Solarbio, P1020-500). […] Inactivated trypsin by adding excessive serum containing medium. Harvested the cells from flask into cell culture medium and counted the cell number.
Day 2. Test compounds were dissolved at 0.3 mM in DMSO (Solarbio, D8371) as stock solution. […] Performed 3-fold, 10-points dilution via transferring 15 μL compound into 30 μL DMSO by using TECAN liquid handler (TECAN, Freedom EVO200).
Day 3. After compound treatment for 24 hours, removed the plate from incubators and equilibrated at room temperature for 15 minutes. Prepared the HiBit reagent (Promega, N3040) by mixing 10 mL of Nano-Glo®-HiBiT Lytic Buffer with 200 μL of Nano-Glo®-HiBiT Lytic Substrate and 100 μL of LgBiT Protein. Added 20 μL of HiBit reagent into each well of the cell plate and spun the plates at room temperature at 1,000 RPM for 1 minute.
The inhibition activity was calculated using the following formula:
(§1) [formula] where HC (high control) is obtained from cells treated with 0.1% DMSO only.

[2] = molecular target: T2, KRAS G12V (Homo sapiens, UniProt P01116, G12V); experiment: KRAS G12V HiBit assay; type: cell-based; conditions: SW620-KRAS (G12V)-HiBit-KI cells, compound treatment for 24 hours, class symbols
T2 construct: SW620-KRAS (G12V)-HiBit-KI cell (Pharmaron); host or cells: SW620-KRAS (G12V)-HiBit-KI cells (HiBiT knock-in at the endogenous KRAS locus)
Experimental: Day 1. […] Rinsed cultivated cells in T-75 flasks with 5 mL PBS (Solarbio, P1020-500). […] Inactivated trypsin by adding excessive serum containing medium. Harvested the cells from flask into cell culture medium and counted the cell number.
Day 2. Test compounds were dissolved at 0.3 mM in DMSO (Solarbio, D8371) as stock solution. […] Performed 3-fold, 10-points dilution via transferring 15 μL compound into 30 μL DMSO by using TECAN liquid handler (TECAN, Freedom EVO200). […] After compound treatment for 24 hours, the plate was removed from incubators and equilibrated at room temperature for 15 minutes. Prepare the HiBit reagent (Promega, N3040) by mixing 10 mL of Nano-Glo®-HiBiT Lytic Buffer with 200 μL of Nano-Glo®-HiBiT Lytic Substrate and 100 μL of LgBiT Protein. Added 20 μL of HiBit reagent into each well of the cell plate and spun the plates at room temperature at 1,000 RPM for 1 minute.
The degradation activity was calculated using the following formula:
as §1

[3] = numeric bounds given in place of class symbols

T1 sequence (P01116 1-188 isoform P01116-2 G12D): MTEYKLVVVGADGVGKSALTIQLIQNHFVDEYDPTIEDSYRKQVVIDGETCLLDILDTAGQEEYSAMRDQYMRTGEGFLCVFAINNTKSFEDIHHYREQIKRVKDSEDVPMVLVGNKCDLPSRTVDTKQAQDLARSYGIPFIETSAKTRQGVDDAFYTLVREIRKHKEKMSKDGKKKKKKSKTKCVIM
T2 sequence (P01116 1-188 isoform P01116-2 G12V): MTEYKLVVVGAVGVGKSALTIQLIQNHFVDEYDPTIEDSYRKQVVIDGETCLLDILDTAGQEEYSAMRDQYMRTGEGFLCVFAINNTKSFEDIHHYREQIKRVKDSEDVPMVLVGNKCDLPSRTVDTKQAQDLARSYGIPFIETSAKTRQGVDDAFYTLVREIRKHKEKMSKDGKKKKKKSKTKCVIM

Compound | DC50 ([1]; class symbols) | Dmax ([1]; class symbols) | DC50 [2] | DC50 [1, 3]
C#Cc1c(F)ccc2cc(O)cc(-c3ncc4c(N5CCCC(F)(F)C5)nc(OCC5(CN6CCN(CC7CCN(c8ccc9c(c8)n(C)c(=O)n9C8CCC(=O)NC8=O)CC7)CC6)CC5)nc4c3F)c12 (stereo not shown) [Compound 17, 3-(5-(4-((4-((1-(((4-(3,3-Difluoropiperidin-1-yl)-7-(8-ethynyl-7-fluoro-3-hydroxynaphthalen-1-yl)-8-fluoropyrido[4,3-d]pyrimidin-2-yl)oxy)methyl)cyclopropyl)methyl)piperazin-1-yl)methyl)piperidin-1-yl)-3-methyl-2-oxo-2,3-dihydro-1H-benzo[d]imidazol-1-yl) piperidine-2,6-dione] | < 0.1 µM | > 50% | > 0.1 µM | –
C#Cc1c(F)ccc2cccc(-c3ncc4c(N5CCC[C@@](C)(O)C5)nc(OC[C@@]56CCCN5[C@@H](COC(=O)N5CCC(CN7CCC(c8ccc9c(c8)n(C)c(=O)n9C8CCC(=O)NC8=O)CC7)CC5)CC6)nc4c3F)c12 (stereo partly shown) [Compound 138] | – | – | > 0.1 µM | > 0.1 µM
CCc1c(F)ccc2cc(O)cc(-c3ncc4c(N5CCC[C@@](C)(O)C5)nc(OC[C@@]56CCCN5[C@H](COC(=O)N5CCC(CN7CC(c8ccc9c(c8)n(C)c(=O)n9C8CCC(=O)NC8=O)C7)CC5)CC6)nc4c3F)c12 (stereo partly drawn) [Compound 395, ((3S,7aS)-7a-(((7-(8-ethyl-7-fluoro-3-hydroxynaphthalen-1-yl)-8-fluoro-4-((R)-3-hydroxy-3-methylpiperidin-1-yl)pyrido[4,3-d]pyrimidin-2-yl)oxy)methyl)hexahydro-1H-pyrrolizin-3-yl)methyl 4-((3-(1-(2,6-dioxopiperidin-3-yl)-3-methyl-2-oxo-2,3-dihydro-1H-benzo[d]imidazol-5-yl)azetidin-1-yl)methyl)piperidine-1-carboxylate] | < 0.1 µM | – | 0.01 to 0.1 µM | –
C#Cc1c(F)ccc2cccc(-c3ncc4c(N5CCCC(C#N)CC5)nc(OC[C@@]56CCCN5[C@H](COC(=O)NCCOc5ccc7c(c5)n(C)c(=O)n7C5CCC(=O)NC5=O)CC6)nc4c3F)c12 (stereo partly drawn) [Compound 116, ((3S,7aS)-7a-(((4-(4-cyanoazepan-1-yl)-7-(8-ethynyl-7-fluoronaphthalen-1-yl)-8-fluoropyrido[4,3-d]pyrimidin-2-yl)oxy)methyl)hexahydro-1H-pyrrolizin-3-yl)methyl (2-((1-(2,6-dioxopiperidin-3-yl)-3-methyl-2-oxo-2,3-dihydro-1H-benzo[d]imidazol-5-yl)oxy)ethyl) carbamate] | > 0.3 µM | – | > 0.1 µM | –
CCc1c(F)ccc2cc(O)cc(-c3ncc4c(N5CCC[C@@](C)(O)C5)nc(OC[C@@]56CCCN5[C@H](CN(C)C(=O)c5ccc(CN7CCC(c8ccc9c(c8)n(C)c(=O)n9C8CCC(=O)NC8=O)CC7)cc5)CC6)nc4c3F)c12 (stereo partly drawn) [Compound 503, 4-((4-(1-(2,6-dioxopiperidin-3-yl)-3-methyl-2-oxo-2,3-dihydro-1H-benzo[d]imidazol-5-yl)piperidin-1-yl)methyl)-N-(((3S,7aS)-7a-(((7-(8-ethyl-7-fluoro-3-hydroxynaphthalen-1-yl)-8-fluoro-4-((R)-3-hydroxy-3-methylpiperidin-1-yl)pyrido[4,3-d]pyrimidin-2-yl)oxy)methyl)hexahydro-1H-pyrrolizin-3-yl)methyl)-N-methylbenzamide] | < 0.1 µM | – | < 0.01 µM | –
CCc1cccc2cc(O)cc(-c3cc4nc(OC[C@@]56CCCN5[C@H](COC(=O)N5CCC7(CC5)CC(N5CCC(c8ccc9c(c8)n(C)c(=O)n9C8CCC(=O)NC8=O)CC5)C7)CC6)nc(N5CCC[C@@](C)(O)C5)c4cn3)c12 (stereo partly drawn) [Compound 487, ((3S,7aS)-7a-(((7-(8-ethyl-3-hydroxynaphthalen-1-yl)-4-((R)-3-hydroxy-3-methylpiperidin-1-yl)pyrido[4,3-d]pyrimidin-2-yl)oxy)methyl)hexahydro-1H-pyrrolizin-3-yl)methyl 2-(4-(1-(2,6-dioxopiperidin-3-yl)-3-methyl-2-oxo-2,3-dihydro-1H-benzo[d]imidazol-5-yl)piperidin-1-yl)-7-azaspiro[3.5]nonane-7-carboxylate] | < 0.1 µM | – | < 0.01 µM | –
CCc1c(F)ccc2cc(O)cc(-c3ncc4c(N5CCC[C@@](C)(O)C5)nc(OCC56CCCN5C(COCCCN5CCC(c7ccc8c(c7)n(C)c(=O)n8C7CCC(=O)NC7=O)CC5)CC6)nc4c3F)c12 (stereo partly drawn) [Compound 449, 3-(5-(1-(3-((7a-(((7-(8-ethyl-7-fluoro-3-hydroxynaphthalen-1-yl)-8-fluoro-4-((R)-3-hydroxy-3-methylpiperidin-1-yl)pyrido[4,3-d]pyrimidin-2-yl)oxy)methyl)hexahydro-1H-pyrrolizin-3-yl)methoxy)propyl)piperidin-4-yl)-3-methyl-2-oxo-2,3-dihydro-1H-benzo[d]imidazol-1-yl)piperidine-2,6-dione] | – | – | 0.01 to 0.1 µM | > 0.1 µM
C#Cc1c(F)ccc2cccc(-c3ncc4c(N5CCC[C@@](C)(O)C5)nc(OC[C@]56CCCN5[C@@H](COC(=O)N5CCC(CN7CCC(c8ccc9c(c8)n(C)c(=O)n9C8CCC(=O)NC8=O)CC7)CC5)CC6)nc4c3F)c12 (stereo partly shown) [Compound 131] | > 0.3 µM | – | > 0.1 µM | –
C#Cc1c(F)ccc2cccc(-c3ncc4c(N5CCC[C@@](C)(O)C5)nc(OC[C@@]56CCCN5[C@H](COC(=O)N5CCC(N7CCC(c8ccc9c(c8)n(C)c(=O)n9C8CCC(=O)NC8=O)CC7)CC5)CC6)nc4c3F)c12 (stereo partly drawn) [Compound 128, ((3S,7aS)-7a-(((7-(8-Ethynyl-7-fluoronaphthalen-1-yl)-8-fluoro-4-((R)-3-hydroxy-3-methylpiperidin-1-yl)pyrido[4,3-d]pyrimidin-2-yl)oxy)methyl)hexahydro-1H-pyrrolizin-3-yl)methyl 4-(1-(2,6-dioxopiperidin-3-yl)-3-methyl-2-oxo-2,3-dihydro-1H-benzo[d]imidazol-5-yl)-[1,4′-bipiperidine]-1′-carboxylate] | > 0.3 µM | – | > 0.1 µM | –
C[C@H]1CN(CCOCCOc2ccc3c(c2)n(C)c(=O)n3C2CCC(=O)NC2=O)CCCN1c1nccc(-c2noc([C@@]3(C)CCCc4sc(N)c(C#N)c43)n2)n1 (stereo partly drawn) [Compound 209, (4S)-2-amino-4-(3-(2-((2S)-4-(2-(2-((1-(2,6-dioxopiperidin-3-yl)-3-methyl-2-oxo-2,3-dihydro-1H-benzo[d]imidazol-5-yl)oxy)ethoxy)ethyl)-2-methyl-1,4-diazepan-1-yl)pyrimidin-4-yl)-1,2,4-oxadiazol-5-yl)-4-methyl-4,5,6,7-tetrahydrobenzo[b]thiophene-3-carbonitrile] | > 0.3 µM | 15 to 50% | > 0.1 µM | –
C[C@H]1CN(CCOCCOc2ccc3c(c2)n(C)c(=O)n3C2CCC(=O)NC2=O)CCCN1c1nccc(-c2noc([C@]3(C)CCCc4sc(N)c(C#N)c43)n2)n1 (stereo partly shown) [Compound 216] | – | – | > 0.1 µM | –
C[C@H]1CN(CCOCCOCCOc2cccc3c2n(C)c(=O)n3C2CCC(=O)NC2=O)CCCN1c1nccc(-c2noc([C@@]3(C)CCCc4sc(N)c(C#N)c43)n2)n1 (stereo partly shown) [Compound 220] | – | – | > 0.1 µM | –
C#Cc1c(F)ccc2cc(O)cc(-c3ncc4c(N5CCC[C@@](C)(O)C5)nc(OC[C@@]56CCCN5[C@H](COC(=O)N5CCC(N7CCC(c8cccc9c8n(C)c(=O)n9C8CCC(=O)NC8=O)CC7)CC5)CC6)nc4c3F)c12 (stereo partly shown) [Compound 148] | – | – | > 0.1 µM | –
C[C@H]1CN(CCOCCOc2cccc3c2n(C)c(=O)n3C2CCC(=O)NC2=O)CCCN1c1nccc(-c2noc([C@@]3(C)CCCc4sc(N)c(C#N)c43)n2)n1 (stereo partly shown) [Compound 221] | – | – | > 0.1 µM | –
C[C@H]1CN(CCOCCOCCOCCOc2cccc3c2n(C)c(=O)n3C2CCC(=O)NC2=O)CCCN1c1nccc(-c2noc([C@@]3(C)CCCc4sc(N)c(C#N)c43)n2)n1 (stereo partly shown) [Compound 219] | – | – | > 0.1 µM | –
C[C@H]1CN(CCOCCOCCOc2ccc3c(c2)n(C)c(=O)n3C2CCC(=O)NC2=O)CCCN1c1nccc(-c2noc([C@@]3(C)CCCc4sc(N)c(C#N)c43)n2)n1 (stereo partly drawn) [Compound 202, (4S)-2-amino-4-(3-{2-[(2S)-4-{2-[2-(2-{[1-(2,6-dioxopiperidin-3-yl)-3-methyl-2-oxo-1,3-benzodiazol-5-yl]oxy}ethoxy)ethoxy]ethyl}-2-methyl-1,4-diazepan-1-yl]pyrimidin-4-yl}-1,2,4-oxadiazol-5-yl)-4-methyl-6,7-dihydro-5H-1-benzothiophene-3-carbonitrile] | – | – | > 0.1 µM | –
